In data set [1] the test system is bleomycin induced lung fibrosis. Description: Model of bleomycin-induced lung fibrosis. Format: in vivo, mouse. The settings on record: female C57/Bl6 mice, intratracheal on days 18, 20, 22 and 24, lungs harvested day 26. Here is the method: Female C57/Bl6 mice (10-14 weeks old) were anaesthetized with halothane, and bleomycin or saline was administered intratracheally (33 μg in 50 μl of saline) and lungs were harvested on day 26. TD139 was instilled into the lungs of mice on days 18, 20, 22 and 24 of bleomycin induced lung injury. Fibrosis was assessed by histological score of collagen stained lung sections and by total collagen content by Sircol assay.
Mice were treated with bleomycin (bleo) or saline (control) and bleomycin treated mice were treated with 200 mg/kg pirfenidone twice daily on days 18-24. TD139 was administered intratracheally on days 18, 20, 22 and 24. Lungs were harvested on day 26.
Histological lung inflammation and fibrosis score were carried out in Masson's trichrome stained sections. Inflammation (peribronchiolar, perivascular, and alveolar wall thickness) scored in >5 random fields at magnification×630 using the following system (peribronchiolar and perivascular, 1=no cells, 2=<20 cells, 3=20-100 cells, 4=>100 cells; alveolar wall thickness, 1=no cells, 2=2-3 cells thick, 3=4-5 cells thick, 4=>5 cells thick). The combined inflammatory score was the sum of these scores. Fibrosis score was evaluated as the area of the section positively stained for collagen (1=none, 2=<10%, 3=<50%, 4=>50%). Only fields where the majority of the field was composed of alveoli were scored. […]

For a further data set, the system named is β-catenin activation. Description: TGF-β1-induced β-catenin activation in primary alveolar epithelial cells (western blot). Format: cell-based, mouse. The settings on record: primary alveolar epithelial cells from WT mice, TGF-β1, 10 μM TD139. Here is the method: Primary alveolar epithelial cells from WT mice were plated and treated with TGF-β1 in the presence or absence of 10 μM TD139. FIG. 1D) Cells were lysed and analyzed for active β-catenin, total β-catenin and β-actin by western blot.
Treated and control mouse type II lung alveolar epithelial cells (AECs) were extracted following a standard method. Briefly, 1 ml of 50 U/ml dispase (BD Biosciences) was administered intratracheally into perfused lungs followed by instillation of 0.5 ml of 1% low melting point agarose. The agarose within the upper airways was allowed to set on ice for 2 minutes and the lungs were placed in 4 ml 50 U/ml dispase for 45 min at room temperature. The lung lobes minus the upper airways were then dispersed in DMEM containing 50 μg/ml DNAse I (Sigma-Aldrich, UK). The cell suspension was passed through a 100 μm cell strainer and the cells washed in DMEM followed by resuspension in DMEM containing 10% FCS. The cell suspension was plated onto tissue culture plastic for 1 h to allow any contaminated fibroblasts and macrophages to adhere. Non-adherent epithelial cells were counted and cultured for 2 days on tissue culture plastic or cover-slips pre-coated with 5 μg/ml collagen (AMS Biotechnology) and 10 μg/ml fibronectin (Sigma-Aldrich), Cells were washed three times in PBS before treatment. […]
On the technique in general: A western blot detects proteins with antibodies after separation by electrophoresis.

A short description of data set [2]: half-life by route of administration. Format: in vivo. The settings on record: mice.
Another data set deals with galectin-3 (Homo sapiens, UniProt P17931).
Chain of galectin-3 (P17931 whole entry): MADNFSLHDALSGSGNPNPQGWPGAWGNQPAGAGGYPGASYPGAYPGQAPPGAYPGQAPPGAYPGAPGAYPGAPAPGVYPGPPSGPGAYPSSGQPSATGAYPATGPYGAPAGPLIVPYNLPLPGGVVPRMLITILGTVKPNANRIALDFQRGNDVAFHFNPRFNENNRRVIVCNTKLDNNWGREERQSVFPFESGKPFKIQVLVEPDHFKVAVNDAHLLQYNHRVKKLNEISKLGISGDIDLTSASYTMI

In the case of `OC[C@H]1O[C@@H](S[C@@H]2O[C@H](CO)[C@H](O)[C@H](n3cc(-c4cccc(F)c4)nn3)[C@H]2O)[C@H](O)[C@@H](n2cc(-c3cccc(F)c3)nn2)[C@H]1O` [TD139, Bis-{3-deoxy-3-[4-(3-fluorophenyl)-1H-1,2,3-triazol-1-yl]-β-D-galactopyranosyl}sulfane], the “bleomycin induced lung fibrosis in vivo” value in data set [1] is listed as “blocked”. In the data set with β-catenin activation, the “TGF-β-induced β-catenin activation in vitro” value is reported as “blocked”. Besides, the “half-life, pulmonary route compared with i.v. or s.c. routes” value in data set [2] was “considerably longer half-life”. Further, the galectin-3 inhibitor entry on galectin-3 is “inhibitor”.

These data come from US9243021B2, “Galactoside inhibitor of galectins” (University of Edinburgh, priority 2012, dated 2016).
